Where a SMILES comes first, the peptide text is derived from it. [ ]: non-standard residue; d: D form. NMeF = CN[C@@H](Cc1ccccc1)C(=O)O; NMeL = CN[C@@H](CC(C)C)C(=O)O; dNMeL = CN[C@H](CC(C)C)C(=O)O; NMeV = CN[C@H](C(=O)O)C(C)C; dNMeA = CN[C@H](C)C(=O)O
Tests used:
[1] = PAMPA
[2] = in vitro; conditions: PAMPA, PAMPA_Papp_Avg

## CC(C)C[C@H]1NC(=O)[C@@H]2CCCN2C(=O)[C@H]2CCCN2C(=O)[C@H](C(C)C)NC(=O)[C@@H](CC(C)C)NC(=O)[C@@H]2CCCN2C(=O)[C@H]2CCCN2C(=O)[C@H](C(C)C)NC1=O (single isomer, unassigned) [D8.12 p1, DLEU VAL DPRO PRO DLEU VAL DPRO PRO]
[1]
  PAMPA_R1: 1.52E-07
  PAMPA_R3: 1.92E-07
[2]
  Papp: 0.169 ×10⁻⁶ cm/s

## CC(C)[C@@H]1C(=O)N[C@@H](Cc2ccccc2)C(=O)N2CCC[C@H]2C(=O)N(C)[C@H](Cc2ccccc2)C(=O)N[C@H](C)C(=O)N2CCC[C@H]2C(=O)N1C (single isomer, unassigned) [Design D6.8.p1, *DPHE DALA PRO *DVAL PHE PRO]
[1]
  PAMPA_R1: 4.07e-06 cm/s
  PAMPA_R3: 3.58e-06 cm/s
[2]
  Papp: 3.47 ×10⁻⁶ cm/s

## CC(C)C[C@H]1C(=O)N2CCC[C@@H]2C(=O)N[C@@H](Cc2ccccc2)C(=O)N2CCC[C@H]2C(=O)N[C@H](C(C)C)C(=O)N[C@H](Cc2ccccc2)C(=O)N1C (single isomer, unassigned) [Design D6.9.p1, DVAL DPHE *LEU DPRO PHE PRO]
[1]
  PAMPA_R1: 4.01e-06 cm/s
  PAMPA_R3: 6.97e-06 cm/s
[2]
  Papp: 5.29 ×10⁻⁶ cm/s

## CC(C)C[C@H]1NC(=O)[C@H]2CCCN2C(=O)[C@@H]2CCCN2C(=O)[C@@H](Cc2ccccc2)NC(=O)[C@@H](C(C)C)NC(=O)[C@H](CC(C)C)N(C)C(=O)[C@@H](Cc2ccccc2)NC1=O (single isomer, unassigned) [Design D7.7.p1, PRO DPRO DLEU DPHE *LEU DVAL DPHE]
[1]
  PAMPA_R1: 8.16e-06 cm/s
  PAMPA_R3: 9.31e-06 cm/s
[2]
  Papp: 8.43 ×10⁻⁶ cm/s

## CC[C@H](C)[C@@H]1NC(=O)[C@H](Cc2ccccc2)NC(=O)[C@H]2CCCN2C(=O)[C@H]([C@@H](C)CC)NC(=O)[C@H](C(C)C)NC(=O)[C@@H](C)NC(=O)[C@H]2CCCN2C1=O (single isomer, unassigned) [Design D7.8.p1, VAL ILE DPRO PHE ILE DPRO DALA]
[1]
  PAMPA_R1: 4.5e-06 cm/s
  PAMPA_R3: 6.04e-06 cm/s
[2]
  Papp: 4.87 ×10⁻⁶ cm/s

## CC[C@@H](C)[C@H]1NC(=O)[C@H](CC(C)C)N(C)C(=O)[C@H]2CCCN2C(=O)[C@H](CC(C)C)NC(=O)[C@H](Cc2ccccc2)N(C)C(=O)CN(C)C(=O)[C@@H](C(C)C)NC(=O)[C@H](C)NC(=O)[C@H]2CCCN2C(=O)[C@@H]2CCCN2C1=O (single isomer, unassigned) [Design D10.58.p1, *GLY *PHE LEU DPRO *LEU DILE PRO DPRO ALA DVAL]
[1]
  PAMPA_R1: 3.35E-07
  PAMPA_R3: 4.44E-07
[2]
  Papp: 0.376 ×10⁻⁶ cm/s

## CC[C@H](C)[C@@H]1NC(=O)[C@H]2CCCN2C(=O)[C@H](C(C)C)NC(=O)[C@H](C(C)C)N(C)C(=O)[C@@H](C(C)C)NC(=O)[C@H](C(C)C)NC(=O)[C@H]2CCCN2C(=O)[C@@H]2CCCN2C(=O)[C@H](C)NC(=O)[C@@H](CC(C)C)N(C)C(=O)[C@H]2CCCN2C1=O [Design D11.8, PRO DPRO VAL DVAL *VAL VAL DPRO ILE DPRO *DLEU ALA] (cyclo(AP[dP]V[dV][NMeV]V[dP]I[dP][dNMeL]))
[1]
  PAMPA_Papp_Avg: BQL
  PAMPA_R1: BQL
  PAMPA_R3: BQL

## CC(C)C[C@@H]1NC(=O)[C@@H](C(C)C)NC(=O)[C@@H]2CCCN2C(=O)[C@H]2CCCN2C(=O)[C@H](Cc2ccccc2)NC(=O)[C@@H](C)NC(=O)[C@@H](CC(C)C)N(C)C(=O)[C@@H]2CCCN2C(=O)[C@H]2CCCN2C(=O)[C@@H](C(C)C)NC(=O)[C@@H](C)N(C)C1=O [Design D11.12, DVAL DPRO PRO *DLEU DALA PHE DPRO PRO DVAL LEU *DALA] (cyclo([dNMeL][dA]F[dP]P[dV]L[dNMeA][dV][dP]P))
[1]
  PAMPA_Papp_Avg: BQL
  PAMPA_R1: BQL
  PAMPA_R3: BQL

## CC[C@H](C)[C@@H]1NC(=O)[C@H](CC(C)C)NC(=O)[C@H](Cc2ccccc2)NC(=O)[C@@H](C)NC(=O)[C@H]2CCCN2C(=O)[C@@H]2CCCN2C(=O)[C@H]2CCCN2C(=O)[C@H](CC(C)C)NC(=O)[C@@H](C(C)C)NC(=O)[C@@H](CC(C)C)N(C)C(=O)[C@@H]2CCCN2C1=O [Design D11.17, PRO *DLEU DVAL LEU DPRO PRO DPRO DALA PHE LEU ILE] (cyclo([dP][dA]FLIP[dNMeL][dV]L[dP]P))
[1]
  PAMPA_Papp_Avg: BQL
  PAMPA_R1: BQL
  PAMPA_R3: BQL

## CC[C@@H](C)[C@H]1NC(=O)[C@@H](C)NC(=O)[C@@H](CC(C)C)NC(=O)[C@@H](Cc2ccccc2)NC(=O)[C@@H]2CCCN2C(=O)[C@@H]2CCCN2C(=O)[C@@H](CC(C)C)N(C)C(=O)[C@@H](C)N(C)C(=O)[C@@H](CC(C)C)NC(=O)[C@H](CC(C)C)NC(=O)[C@@H](Cc2ccccc2)NC1=O [Design D11.18, DALA DILE DPHE LEU DLEU *DALA *DLEU PRO PRO DPHE DLEU] (cyclo(L[dL][dNMeA][dNMeL]PP[dF][dL][dA][dI][dF]))
[1]
  PAMPA_Papp_Avg: BQL
  PAMPA_R1: BQL
  PAMPA_R3: BQL

## CC[C@@H](C)[C@H]1NC(=O)[C@@H](CC(C)C)NC(=O)[C@@H](CC(C)C)NC(=O)[C@@H](C)NC(=O)[C@@H](CC(C)C)NC(=O)[C@H]2CCCN2C(=O)[C@@H]2CCCN2C(=O)[C@H]2CCCN2C(=O)[C@@H](C)NC(=O)[C@@H](CC(C)C)N(C)C(=O)[C@H]2CCCN2C1=O [Design D11.19, DILE DPRO *DLEU DALA DPRO PRO DPRO DLEU DALA DLEU DLEU] (cyclo([dP][dL][dA][dL][dL][dI][dP][dNMeL][dA][dP]P))
[1]
  PAMPA_Papp_Avg: BQL
  PAMPA_R1: BQL
  PAMPA_R3: BQL

## CC[C@@H](C)[C@H]1NC(=O)[C@@H](CC(C)C)N(C)C(=O)[C@@H](CC(C)C)N(C)C(=O)[C@H](CC(C)C)NC(=O)[C@@H](CC(C)C)N(C)C(=O)[C@H](Cc2ccccc2)NC(=O)[C@H](CC(C)C)NC(=O)[C@@H]2CCCN2C(=O)[C@H]2CCCN2C(=O)[C@@H]2CCCN2C(=O)[C@H](CC(C)C)NC1=O [Design D11.22, PHE *DLEU LEU *DLEU *DLEU DILE LEU PRO DPRO PRO LEU] (cyclo(LF[dNMeL]L[dNMeL][dNMeL][dI]LP[dP]P))
[1]
  PAMPA_Papp_Avg: BQL
  PAMPA_R1: BQL
  PAMPA_R3: BQL

## CC[C@H](C)[C@@H]1NC(=O)[C@H]2CCCN2C(=O)[C@@H](CC(C)C)N(C)C(=O)[C@H](CC(C)C)NC(=O)[C@@H](C)N(C)C(=O)[C@H]2CCCN2C(=O)[C@@H](CC(C)C)NC(=O)[C@@H](C(C)C)NC(=O)[C@H](CC(C)C)NC(=O)[C@@H](C)NC(=O)[C@@H](Cc2ccccc2)NC(=O)[C@H]2CCCN2C1=O [Design D12.2, ILE DPRO DPHE DALA LEU DVAL DLEU DPRO *DALA LEU *DLEU DPRO] (cyclo(I[dP][dF][dA]L[dV][dL][dP][dNMeA]L[dNMeL][dP]))
[1]
  PAMPA_Papp_Avg: BQL
  PAMPA_R1: BQL
  PAMPA_R3: BQL

## CC[C@@H](C)[C@H]1NC(=O)[C@H](C(C)C)NC(=O)[C@H]2CCCN2C(=O)[C@@H]2CCCN2C(=O)[C@H](Cc2ccccc2)NC(=O)[C@@H](CC(C)C)NC(=O)[C@H](Cc2ccccc2)NC(=O)[C@@H]2CCCN2C(=O)[C@@H](C)N(C)C(=O)[C@@H]2CCCN2C(=O)[C@H](CC(C)C)NC(=O)[C@H](CC(C)C)N(C)C1=O [Design D12.4, PRO *DALA PRO PHE DLEU PHE PRO DPRO VAL DILE *LEU LEU] (cyclo(FP[dP]V[dI][NMeL]LP[dNMeA]PF[dL]))
[1]
  PAMPA_Papp_Avg: BQL
  PAMPA_R1: BQL
  PAMPA_R3: BQL

## CC[C@@H](C)[C@H]1NC(=O)[C@@H](CC(C)C)N(C)C(=O)[C@H](CC(C)C)NC(=O)[C@@H](C(C)C)NC(=O)[C@@H]2CCCN2C(=O)[C@H]2CCCN2C(=O)[C@@H]([C@H](C)CC)NC(=O)[C@@H](C)N(C)C(=O)[C@@H]([C@H](C)CC)NC(=O)[C@H](Cc2ccccc2)N(C)C(=O)[C@H]2CCCN2C(=O)[C@@H](Cc2ccccc2)NC1=O [Design D12.7, DPHE DPRO *PHE DILE *DALA DILE DPRO PRO DVAL LEU *DLEU DILE] (cyclo([dV]L[dNMeL][dI][dF][dP][NMeF][dI][dNMeA][dI][dP]P))
[1]
  PAMPA_Papp_Avg: BQL
  PAMPA_R1: BQL
  PAMPA_R3: BQL

## CC[C@H](C)[C@@H]1NC(=O)[C@H](C)NC(=O)[C@H](CC(C)C)NC(=O)[C@@H]2CCCN2C(=O)[C@@H](C(C)C)NC(=O)[C@H](CC(C)C)NC(=O)[C@@H]2CCCN2C(=O)[C@H]2CCCN2C(=O)[C@H](C)NC(=O)[C@H](Cc2ccccc2)NC(=O)[C@@H](CC(C)C)NC(=O)[C@H]2CCCN2C1=O [Design D12.8, PHE ALA DPRO PRO LEU DVAL PRO LEU ALA ILE DPRO DLEU] (cyclo(L[dV]PLAI[dP][dL]FA[dP]P))
[1]
  PAMPA_Papp_Avg: BQL
  PAMPA_R1: BQL
  PAMPA_R3: BQL

## CC[C@@H](C)[C@H]1NC(=O)[C@@H]2CCCN2C(=O)[C@H](CC(C)C)NC(=O)[C@@H](CC(C)C)NC(=O)[C@@H](Cc2ccccc2)NC(=O)[C@@H](Cc2ccccc2)NC(=O)[C@@H](C)NC(=O)[C@H]2CCCN2C(=O)[C@@H]2CCCN2C(=O)[C@@H](C(C)C)NC(=O)[C@@H]2CCCN2C(=O)[C@H]2CCCN2C1=O [Design D12.9, DILE DPRO PRO DVAL PRO DPRO DALA DPHE DPHE DLEU LEU PRO] (cyclo([dV]P[dP][dA][dF][dF][dL]LP[dI][dP]P))
[1]
  PAMPA_Papp_Avg: BQL
  PAMPA_R1: BQL
  PAMPA_R3: BQL

## *DPHE *LEU PRO DLEU VAL *DLEU PRO DILE *ALA *ALA [Design D10.65]
[1]
  PAMPA_Papp_Avg: BQL
  PAMPA_R1: BQL
  PAMPA_R3: BQL

## DPRO PRO *DLEU DALA PRO *DLEU ALA *GLY *DVAL DPHE [Design D10.7]
[1]
  PAMPA_Papp_Avg: BQL
  PAMPA_R1: BQL
  PAMPA_R3: BQL

## PRO DPRO DALA DPHE DLEU ILE DPHE *DALA LEU PRO NLE [Design D11.14.p1]
[1]
  PAMPA_Papp_Avg: BQL
  PAMPA_R1: BQL
  PAMPA_R3: BQL

## PRO DPRO DALA DPHE DLEU ILE DPHE *DALA LEU PRO NLE [Design D11.14.p2]
[1]
  PAMPA_Papp_Avg: BQL
  PAMPA_R1: BQL
  PAMPA_R3: BQL

## PRO DPRO DPHE *DLEU *DPHE DLEU ILE PRO *DLEU LEU [Design D10.15]
[1]
  PAMPA_Papp_Avg: BQL
  PAMPA_R1: BQL
  PAMPA_R3: BQL

Reference: publication PMC9490236, “Accurate de novo design of membrane-traversing macrocycles” (Cell, 2022)
